Reference: paper PMC5382548 (Scientific Reports, 2015)

How the values were obtained:
F21T G4 = experiment: FRET melting competition assay, labelled F21T; assay type: binding, human; details: ligand 1 μM, labelled F21T 0.2 μM
Protocol: To assess selectivity of the IQc compounds 2d and 3e to different DNA sequences, we performed competitive FRET experiments with 0.2 μM of labelled KRAS21R and F21T G4 and increasing concentrations of two non-fluorescent competitors, 26mer ds-DNA or the human telomeric sequence (HT21). A decrease in ΔTm indicates the displacement of the ligand from labelled G4 by the competitor DNA.
Figure 3 FRET melting competition assay data for (a) 2d and (b) 3e (1 μM) in complex with KRAS21R and F21T G4s (0.2 μM), with increasing concentrations of non-labeled 26ds, HT21 or KRAS21R (0.4 to 25 μM) competitor, in K-cacodylate buffer (pH 7.4, 60 mM K^+).
Oligonucleotide sequences were purchased from Eurofins MWG Synthesis GmbH, Germany or STAB VIDA Genomics Lab, Caparica, Lisbon, Portugal. The labelled oligonucleotides used in the FRET assays had attached the donor fluorophore FAM (6-carboxyfluorescein) and the acceptor fluorophore TAMRA (6-carboxytetramethylrhodamine): KRAS21R: 5′-FAM-[…]-TAMRA-3′; KRAS32R: 5′-FAM-[…]-TAMRA-3′; UTR-1: 5′-FAM-GCGGCGGCGGAGG-TAMRA-3′; UTR-2: 5′-FAM-[…]-TAMRA-3; T-Loop:5′-FAM-[…]-TAMRA-3′; F21T: 5′-FAM-[…]-TAMRA-3′. Non-labelled oligonucleotides were used in FRET competition assays and in the spectroscopic studies: ds26: - d(5′-CAATCGGATCGAATT CGATCCGATTG-3′); KRAS21R: 5′-[…]-3′; HT21: 5′-[…]-3′. […]

[1] = system: colon cancer cell lines with mutated KRAS; experiment: Anti-proliferative activity, colon cancer cell lines with mutated KRAS; assay type: cell-based; details: Homo sapiens; range over HCT116 and SW620
Text: These differences may be due to differing effects on cellular proliferation mechanisms, on cellular uptake and/or intracellular distribution. Assuming a passive diffusion membrane transport for IQcs, compound 2d is expected to accumulate more inside cells due to its predicted higher lipophilicity than compounds with an additional protonated basic group at physiologic pH (3d and 3e). Similarly, the tetra-cationic porphyrin TMPyP4, which is known to have low cell-membrane permeability, gave higher IC50 values.
HCT116 human colon carcinoma cells, SW620 human colorectal adenocarcinoma and HEK293 T human embryonic kidney cells were grown in Dulbecco's modified Eagle's medium (DMEM) supplemented with 10% fetal bovine serum, and 1% antibiotic/antimycotic (Invitrogen, Grand Island, NY, USA) and maintained at 37°C in a humidified atmosphere of 5% CO2. […] Following 72 h of compound exposure, cell viability was evaluated using the CellTiter 96 AQueous Non-Radioactive Cell Proliferation Assay (Promega, Madison, WI, USA), using 3-(4,5-dimethylthiazol-2-yl)-5-(3-carboxymethoxyphenyl)-2-(4-sulfophenyl)-2H-tetrazolium, inner salt (MTS) as previously described. Cell viability data were expressed as mean ± SEM or mean ± SD from at least three independent experiments. IC50 and IC65 values were determined using GaphPad Prism v.5.00 (GraphPad Software). […]

SMILES: CCN(CC)CCCNc1ccc2c(c1)[nH]c1c2c[n+](C)c2ccc(NCCCN(CC)CC)cc12.[Cl-] [3e]
- Concentration of competitor KRAS21R reducing the induced thermal stability of F21T by 50% (F21T G4): 2 µM

SMILES: CCN(CC)CCCNc1ccc2c(c1)c1[nH]c3ccccc3c1c[n+]2C [2d]
- IC50 [1]: 0.14 to 0.5 µM
